Data on 9 compounds can be found in ChEMBL document CHEMBL4270556, “Current progress on antioxidants incorporating the pyrazole core” (Eur J Med Chem, 2018).

pIC50: −log10 of the molar value. Converted amounts (≈) assume the structure as drawn.

Assay [1] concerns THP-1. The assay is described as follows: Antioxidant activity in human THP1 cells assessed as inhibition of macrophage-mediated LDL oxidation after 24 hrs in presence of CuSO4 by TBARS assay. It counts as functional, cell-based. To be noted: THP-1, 24 h.
Assay [2] in a line: Antioxidant activity assessed as inhibition of lipid peroxidation. Type of assay: functional.
Assay [3] is described as follows: Antioxidant activity assessed as hydroxyl radical scavenging activity. Type of assay: functional.
Assay [4] is described as follows: Antioxidant activity assessed as DPPH radical scavenging activity at 4 mM relative to control. Type of assay: functional.
The subject of assay [5] is SH-SY5Y. Description: Neuroprotection against rotenone/oligomycin A-induced cell death in human SH-SY5Y cells at 1 uM preincubated for 24 hrs followed by rotenone/oligomycin A addition measured after 24 hrs by MTT assay relative to control. It counts as functional.
Assay [6] in a line: Antioxidant activity assessed as inhibition of H2O2-induced lipid peroxidation. It counts as functional.
A short description of assay [7]: Antioxidant activity assessed as radical scavenging activity. It counts as functional.

For `CC(C)(Sc1cc(C(C)(C)C)c(O)c(C(C)(C)C)c1)Sc1cc(C(C)(C)C)c(O)c(C(C)(C)C)c1` [PROBUCOL], in assay [1], the negative-log IC50 (pIC50) is 6.22. As for `Oc1cc(O)c2c(c1)O[C@H](c1ccc(O)c(O)c1)[C@@H](O)C2` [CIANIDANOL], the IC50 in assay [2] worked out at 1440 µM; in assay [3], 2930 µM. Turning to `Oc1c(Cl)cc(Cl)cc1C1Nc2ccccc2-c2cc(-c3ccccc3)nn21` (stereo unspecified), the Activity in assay [4] was 99%. As to `Cc1ccc(-c2cc(C(F)(F)F)nn2-c2ccc(S(N)(=O)=O)cc2)cc1` [CELECOXIB], the IC50 in assay [2] was found to be 1990 µM; in assay [3] it was 1970 µM. `Cc1[nH]nc2c1C(c1cccnc1)C(C#N)=C(N)O2` (stereo unspecified) gave an Activity in assay [5] of 57.9%. `CC1=NN(C(=O)c2ccccc2O)C(O)(C(F)(F)F)C1` (stereo unspecified): the negative logarithm of the IC50 (pIC50) in assay [6] was above 4.82. For the compound `O=[N+]([O-])c1cccc(C2Nc3ccccc3-c3cc(-c4ccccc4)nn32)c1` (stereo unspecified), the Activity in assay [4] was determined as 96%.

As for `CC(C)(C)c1cc(C2=NNC(c3cc(C(C)(C)C)c(O)c(C(C)(C)C)c3)C2)cc(C(C)(C)C)c1O` (stereo unspecified), in assay [1], the pIC50 was 7.00. Turning to `Nc1[nH]nc(NCc2ccccc2)c1-c1ccc([N+](=O)[O-])cc1`, the 50% inhibitory concentration (IC50) in assay [7] came out at 800 µg/mL (≈ 2590 µM).

A word on the pIC50: it is −log10 of the IC50, conventionally taken in molar units. As usually defined, the IC50 is the concentration needed to halve the response being measured.
